The results in this text go back to patent US6683103B2, “Sulfonamides for treatment of endothelin-mediated disorders” (Texas Biotechnology Corporation, priority 1997, dated 2004).

One assay deals with T1, human ETA receptors (Homo sapiens, UniProt P25101).
T1 construct: endogenous in cells; host or cells: TE 671 cells (ATCC HTB 139)
T1 sequence (P25101 21-427): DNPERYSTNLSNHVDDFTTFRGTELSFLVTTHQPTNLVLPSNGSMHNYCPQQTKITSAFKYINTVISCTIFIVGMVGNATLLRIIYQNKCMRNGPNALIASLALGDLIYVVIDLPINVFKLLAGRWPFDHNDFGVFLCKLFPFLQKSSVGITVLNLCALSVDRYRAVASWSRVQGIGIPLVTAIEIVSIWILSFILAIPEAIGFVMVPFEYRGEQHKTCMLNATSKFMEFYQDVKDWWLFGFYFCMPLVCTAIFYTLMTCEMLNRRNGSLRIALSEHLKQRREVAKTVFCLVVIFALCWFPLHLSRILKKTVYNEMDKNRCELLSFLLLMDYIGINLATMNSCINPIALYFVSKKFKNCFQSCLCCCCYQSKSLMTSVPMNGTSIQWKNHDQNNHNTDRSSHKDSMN
Briefly: Binding Test #1: inhibition of 125I-ET-1 binding to ETA receptors (TE 671 cell membranes). The conditions noted are these: read-out: ETA. The procedure, abridged: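 Radioligand competition in triplicate: ¹²⁵I-endothelin-1 displaced by test compound (1 nM–100 μM final) from ETA-bearing TE 671 cell membranes in HEPES pH 7.4 binding buffer with NaCl, MgCl2 and bacitracin. Incubation 16–18 h at 4 °C (or at 24 °C); 80 nM ET-1 defines nonspecific binding; pellet radioactivity gives percent inhibition.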

The target in another assay is T2, human ETB receptor (Homo sapiens, UniProt P24530).
T2 construct: expressed in transfected cells; host or cells: COS7 cells
T2 sequence (P24530 27-442): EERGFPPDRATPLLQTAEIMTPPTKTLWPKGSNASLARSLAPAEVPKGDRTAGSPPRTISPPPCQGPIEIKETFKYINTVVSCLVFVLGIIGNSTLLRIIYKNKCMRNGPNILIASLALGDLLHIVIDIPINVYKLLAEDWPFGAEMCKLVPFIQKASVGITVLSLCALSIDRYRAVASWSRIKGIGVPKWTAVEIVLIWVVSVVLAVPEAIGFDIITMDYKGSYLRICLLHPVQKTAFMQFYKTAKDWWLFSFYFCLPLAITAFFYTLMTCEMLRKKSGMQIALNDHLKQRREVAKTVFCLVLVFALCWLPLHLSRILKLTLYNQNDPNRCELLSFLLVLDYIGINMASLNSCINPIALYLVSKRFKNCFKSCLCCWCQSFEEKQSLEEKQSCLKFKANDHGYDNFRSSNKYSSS
Briefly: Binding Test #2: inhibition of 125I-ET-1 binding to ETB receptors (transfected COS7 cell membranes). The conditions noted are these: read-out: ETB. The procedure, abridged:
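Competition with 125I-ET-1 for binding to membranes from COS7 cells transfected with human ETB receptor, used at 1 μg/50 μl binding buffer. Membranes prepared in HEPES pH 7.4 with aprotinin, including a DNase/MnCl2 step at 37 °C for 30 min.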

Where [1] appears, read: Table 1, † incubation at 24° C.
The mark [2] stands for this setting: Table 2, † incubation at 24° C.

Like-named read-outs stand apart in the source and are kept apart here.

Turning to `Cc1noc(NS(=O)(=O)c2ccc(-c3cc(C(F)(F)F)n(C)n3)s2)c1Br` [N-(4-Bromo-3-methyl-5-isoxazolyl)-5-{3-[1-methyl-5-(trifluoromethyl)pyrazolyl]}thiophene-2-sulfonamide], the IC50 at human ETA receptors (Table 1, incubation at 4° C.) is ~6.7 µM; on human ETB receptor (Table 1, incubation at 4° C.), ~0.36 µM.
On to `Cc1noc(NS(=O)(=O)c2cccs2)c1Br` [N-(4-bromo-3-methyl-5-isoxazolyl)2-thiophenesulfonamide], for which the IC50 is 0.095 ± 0.07 µM at human ETA receptors (Table 1, incubation at 4° C.) and 27.7 ± 15 µM on human ETB receptor (Table 1, incubation at 4° C.).
For the compound `COc1cc(NC(=O)c2sccc2S(=O)(=O)Nc2onc(C)c2Cl)c(C(N)=O)cc1OC` [N-(4-chloro-3-methyl-5-isoxazolyl)-2-(2-carboxamido-4,5-dimethoxyphenylaminocarbonyl)thiophene-3-sulfonamide], the IC50 is 0.011 µM at human ETA receptors (setting [1]) and 61 µM on human ETB receptor (setting [1]).
The corresponding values for `Cc1noc(NS(=O)(=O)c2ccsc2CC2(c3ccc4c(c3)OCO4)OCCO2)c1Cl` [N-(4-chloro-3-methyl-5-isoxazolyl)-2-[β,β-(ethylenedioxy)-3,4-(methylenedioxy)phenethyl]thiophene-3-sulfonamide] are 0.128 µM and 2.09 µM.
Regarding `Cc1noc(NS(=O)(=O)c2cc3ccccc3s2)c1C` [N-(3,4-dimethyl-5-isoxazolyl)benzo[b]thiophene-2-sulfonamide], the IC50 at human ETA receptors (Table 1, incubation at 4° C.) amounted to 7.22 µM; at human ETB receptor (Table 1, incubation at 4° C.) it was 11.1 µM.
In the case of `COc1ccccc1NC(=O)c1sccc1S(=O)(=O)Nc1onc(C)c1Br` [N-(4-Bromo-3-methyl-5-isoxazolyl)-2-[N-(2-methoxyphenyl)aminocarbonyl]thiophene-3-sulfonamide], the IC50 at human ETA receptors (Table 1, incubation at 4° C.) worked out at 0.0116 µM; on human ETB receptor (Table 1, incubation at 4° C.) it was 13.2 µM.
On to “N-2-[3,4-(methylenedioxy)phenylacetyl]thiophene-3-sulfonamide”, for which the IC50 is 1.8 µM at human ETA receptors (setting [1]) and 32.5 µM at human ETB receptor (setting [1]).
With `Cc1noc(NS(=O)(=O)c2cc(Br)c(Br)s2)c1Br` [N-(4-Bromo-3-methyl-5-isoxazolyl)-4,5-dibromothiophene-2-sulfonamide], the IC50 at human ETA receptors (Table 1, incubation at 4° C.) is 0.281 µM; at human ETB receptor (Table 1, incubation at 4° C.), 2.58 µM.
Turning to “N-(4-bromo-5-methyl-3-isoxazolyl)-5-(4-methylphenyl)thiophene-2-sulfonamide”, the IC50 on human ETA receptors (Table 1, incubation at 4° C.) is 7.1 µM; at human ETA receptors (setting [1]) it was 15.8 µM; on human ETB receptor (Table 1, incubation at 4° C.) it was 0.359 µM; on human ETB receptor (setting [1]), 0.25 µM.
In the case of `Cc1cc2c(cc1CCc1sccc1S(=O)(=O)Nc1onc(C)c1Br)OCO2` [N-(4-bromo-3-methyl-5-isoxazolyl)-2-[2-methyl-4,5-(methylenedioxy)phenethyl]thiophene-3-sulfonamide], the IC50 on human ETA receptors (setting [1]) turned out to be 0.0619 µM; on human ETB receptor (setting [1]), 8.9 µM.
Take `Cc1noc(NS(=O)(=O)c2sccc2Sc2ccccc2)c1Br` [N-(4-bromo-3-methyl-5-isoxazolyl)-3-(phenylthio)thiophene-2-sulfonamide]: the IC50 stood at 0.0801 µM on human ETA receptors (setting [1]) and 3.68 µM on human ETB receptor (setting [1]).
The corresponding values for `Cc1noc(NS(=O)(=O)c2ccc(-c3cccc([N+](=O)[O-])c3)s2)c1Br` [N-(4-bromo-3-methyl-5-isoxazolyl)-5-(3-nitrophenyl)thiophene-2-sulfonamide] are 26 µM and 4.5 µM.
`Cc1noc(NS(=O)(=O)c2sccc2CCc2ccccc2)c1Br` [N-(4-bromo-3-methyl-5-isoxazolyl)-3-(phenethyl)thiophene-2-sulfonamide]: the IC50 amounted to 0.16 µM at human ETA receptors (Table 1, incubation at 4° C.); 0.676 µM at human ETA receptors (setting [1]); 10.8 µM on human ETB receptor (Table 1, incubation at 4° C.); 37.2 µM at human ETB receptor (setting [1]).
With `Cc1noc(NS(=O)(=O)c2cc(-c3ccc(C(C)C)cc3)cs2)c1Br` [N-(4-bromo-3-methyl-5-isoxazolyl)-4-(4′-isopropylphenyl))thiophene-2-sulfonamide], the IC50 on human ETA receptors (Table 1, incubation at 4° C.) amounted to 5.5 µM; on human ETB receptor (Table 1, incubation at 4° C.) it was 1.3 µM.
Consider “N-(4-chloro-3-methyl-5-isoxazolyl)-2-phenylbenzo[b]thiophene sulfonamide”, for which the IC50 was determined as 0.932 µM at human ETA receptors (setting [1]) and 46.8 µM on human ETB receptor (setting [1]).
For `COc1ccsc1S(=O)(=O)Nc1onc(C)c1C` [N-(3,4-dimethyl-5-isoxazolyl)-3-methoxythiophene-2-sulfonamide], the IC50 on human ETA receptors (Table 1, incubation at 4° C.) was determined as 2.5 µM; at human ETB receptor (Table 1, incubation at 4° C.), 45.5 µM.
For `COc1cc(C#N)c(NC(=O)c2sccc2S(=O)(=O)Nc2onc(C)c2Cl)c(OC)c1OC` [N-(4-chloro-3-methyl-5-isoxazolyl)-2-[(2,3,4-trimethoxy-6-cyano)phenylaminocarbonyl]thiophene-3-sulfonamide], the IC50 at human ETA receptors (setting [1]) turned out to be 0.000169 µM; on human ETB receptor (setting [1]) it was 12.5 µM.
Regarding “N-(4-bromo-3-methyl-5-isoxazolyl)-3′,4′-methylenedioxyphenyl-4-biphenylsulfonamide”, the IC50 at human ETA receptors (setting [2]) is 38.2 ± 4.95 µM; on human ETB receptor (setting [2]) it was 3 ± 0.78 µM.
Regarding `Cc1noc(NS(=O)(=O)c2c(C)sc(C)c2-c2ccccc2)c1Br` [N-(4-bromo-3-methyl-5-isoxazolyl)-2,5-dimethyl-4-phenylthiophene-3-sulfonamide], the IC50 at human ETA receptors (Table 1, incubation at 4° C.) is 1.4 µM; at human ETB receptor (Table 1, incubation at 4° C.), ~100 µM.
Consider `CCC(C)c1ccc(NC(=O)c2sccc2S(=O)(=O)Nc2onc(C)c2Br)cc1` (centres unmarked) [N-(4-bromo-3-methyl-5-isoxazolyl)-2-[N-(4-sec-butylphenyl)aminocarbonyl]thiophene-3-sulfonamide], for which the IC50 at human ETA receptors (Table 1, incubation at 4° C.) was ~0.008 µM; at human ETB receptor (Table 1, incubation at 4° C.) it was 1.76 µM.
With `Cc1cc2c(cc1CCc1ccsc1S(=O)(=O)Nc1onc(C)c1Br)OCO2` [N-(4-bromo-3-methyl-5-isoxazolyl)-3-[2-methyl-4,5-(methylenedioxy)phenethyl]thiophene-2-sulfonamide], the IC50 was ~0.1 µM on human ETA receptors (setting [1]) and ~5 µM on human ETB receptor (setting [1]).
In the same order, the values of `Cc1noc(NS(=O)(=O)c2ccc(-c3cccc4ccccc34)s2)c1Br` [N-(4-bromo-3-methyl-5-isoxazolyl)-5-(1-naphthyl)thiophene-2-sulfonamide] are 14 µM and 1.4 µM.
Take `Cc1cc(C)c(NC(=O)c2sccc2S(=O)(=O)Nc2onc(C)c2Cl)c(C)c1` [N-(4-chloro-3-methyl-5-isoxazolyl)-2-(2,4,6-trimethylphenylaminocarbonyl)thiophene-3-sulfonamide]: the IC50 on human ETA receptors (setting [1]) is 0.000626 µM; at human ETB receptor (setting [1]), 8.27 µM.
Regarding `Cc1noc(NS(=O)(=O)c2ccc(-c3ccccc3)o2)c1Br` [N-(4-bromo-3-methyl-5-isoxazolyl)-5-phenylfuran-2-sulfonamide], the IC50 at human ETA receptors (Table 1, incubation at 4° C.) came to 0.857 µM; at human ETB receptor (Table 1, incubation at 4° C.), 2.43 µM.
With `Cc1noc(NS(=O)(=O)c2c(C(C)C)sc3ccccc23)c1Br` [N-(4-bromo-3-methyl-5-isoxazolyl)-2-i-propylbenzo[b]thiophene-3-sulfonamide], the IC50 was found to be 0.005 µM at human ETA receptors (Table 1, incubation at 4° C.); 0.03 µM on human ETA receptors (setting [1]); 5.7 µM on human ETB receptor (Table 1, incubation at 4° C.); 10.7 µM on human ETB receptor (setting [1]).
In the case of `Cc1noc(NS(=O)(=O)c2c(Cl)sc(Cl)c2Br)c1Br` [N-(4-Bromo-3-methyl-5-isoxazolyl)-4-bromo-2,5-dichlorothiophene-3-sulfonamide], the IC50 is ~0.28 µM at human ETA receptors (Table 1, incubation at 4° C.) and 10.4 µM at human ETB receptor (Table 1, incubation at 4° C.).
“N-(4-chloro-3-methyl-5-isoxazolyl)-2-[2-methyl-4,5-(methylenedioxy)phenylhydroxyimino]thiophene-3-sulfonamide”: the IC50 was determined as 0.794 µM on human ETA receptors (setting [1]) and 6.49 µM at human ETB receptor (setting [1]).
For the compound `Cc1ccc(C=CCc2sccc2S(=O)(=O)Nc2onc(C)c2Br)c(C)c1` [N-(4-bromo-3-methyl-5-isoxazolyl)-2-(2,4-dimethylcinnamyl)thiophene-3-sulfonamide], the values for the IC50 at human ETA receptors (setting [1]) and at human ETB receptor (setting [1]) were 0.166 µM and 2.97 µM, respectively.
As to `Cc1noc(NS(=O)(=O)c2sccc2-c2ccccc2)c1Br` [N-(4-bromo-3-methyl-5-isoxazolyl)-3-phenylthiophene-2-sulfonamide], the IC50 turned out to be 0.0547 µM at human ETA receptors (Table 1, incubation at 4° C.) and 11.1 µM at human ETB receptor (Table 1, incubation at 4° C.).
As to “N-(3,4-dimethyl-5-isoxazolyl)-2-(4-tolylacetylphenyl)thiophene-3-sulfonamide”, the figures for the IC50 on human ETA receptors (setting [1]) and at human ETB receptor (setting [1]) were 0.0027 µM and 29.2 µM, respectively.
Take `CCc1ccc(-c2ccc(S(=O)(=O)Nc3onc(C)c3Br)s2)s1` [N-(4-bromo-3-methyl-5-isoxazolyl)-5-(5-ethylthien-2-yl)thiophene-2-sulfonamide]: the values for the IC50 on human ETA receptors (setting [1]) and on human ETB receptor (setting [1]) were 24 µM and 7.7 µM, respectively.
